Source: BindingDB's records for doi:10.1016/0024-3205(96)00449-3 (Eli Lilly, 1996)

Columns and labels:
[1] = biological target: 5-hydroxytryptamine receptor 2B (Homo sapiens, UniProt P41595)
[2] = biological target: 5-hydroxytryptamine receptor 2A (Homo sapiens, UniProt P28223)
[3] = biological target: T1, 5-hydroxytryptamine receptor 2C (Homo sapiens, UniProt P28335)
T1 sequence (P28335 whole entry): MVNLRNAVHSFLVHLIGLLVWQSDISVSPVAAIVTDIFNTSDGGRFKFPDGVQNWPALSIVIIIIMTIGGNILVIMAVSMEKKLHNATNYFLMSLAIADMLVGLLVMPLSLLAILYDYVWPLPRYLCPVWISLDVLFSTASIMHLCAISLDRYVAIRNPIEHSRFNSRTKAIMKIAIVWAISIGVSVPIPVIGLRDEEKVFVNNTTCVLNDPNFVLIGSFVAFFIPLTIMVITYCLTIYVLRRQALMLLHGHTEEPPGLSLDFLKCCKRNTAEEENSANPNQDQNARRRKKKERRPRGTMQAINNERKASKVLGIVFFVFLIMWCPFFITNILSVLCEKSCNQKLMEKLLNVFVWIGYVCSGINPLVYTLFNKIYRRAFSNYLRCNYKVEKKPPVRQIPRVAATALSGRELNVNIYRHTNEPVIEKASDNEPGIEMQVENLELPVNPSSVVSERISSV

5-hydroxytryptamine receptor 2A, sequence (P28223 whole entry): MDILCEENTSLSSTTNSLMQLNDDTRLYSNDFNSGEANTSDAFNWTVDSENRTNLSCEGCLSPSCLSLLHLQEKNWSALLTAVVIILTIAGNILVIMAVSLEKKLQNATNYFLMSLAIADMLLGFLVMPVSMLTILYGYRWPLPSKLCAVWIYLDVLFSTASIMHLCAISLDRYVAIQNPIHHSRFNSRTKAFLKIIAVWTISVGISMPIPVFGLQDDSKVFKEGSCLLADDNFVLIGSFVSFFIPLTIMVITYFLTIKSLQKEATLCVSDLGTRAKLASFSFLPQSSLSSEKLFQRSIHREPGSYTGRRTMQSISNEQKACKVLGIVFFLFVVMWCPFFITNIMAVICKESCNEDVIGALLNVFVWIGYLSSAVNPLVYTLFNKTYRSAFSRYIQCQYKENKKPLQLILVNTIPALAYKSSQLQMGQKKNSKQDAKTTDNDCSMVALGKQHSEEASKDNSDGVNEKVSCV
5-hydroxytryptamine receptor 2B, sequence (P41595 whole entry): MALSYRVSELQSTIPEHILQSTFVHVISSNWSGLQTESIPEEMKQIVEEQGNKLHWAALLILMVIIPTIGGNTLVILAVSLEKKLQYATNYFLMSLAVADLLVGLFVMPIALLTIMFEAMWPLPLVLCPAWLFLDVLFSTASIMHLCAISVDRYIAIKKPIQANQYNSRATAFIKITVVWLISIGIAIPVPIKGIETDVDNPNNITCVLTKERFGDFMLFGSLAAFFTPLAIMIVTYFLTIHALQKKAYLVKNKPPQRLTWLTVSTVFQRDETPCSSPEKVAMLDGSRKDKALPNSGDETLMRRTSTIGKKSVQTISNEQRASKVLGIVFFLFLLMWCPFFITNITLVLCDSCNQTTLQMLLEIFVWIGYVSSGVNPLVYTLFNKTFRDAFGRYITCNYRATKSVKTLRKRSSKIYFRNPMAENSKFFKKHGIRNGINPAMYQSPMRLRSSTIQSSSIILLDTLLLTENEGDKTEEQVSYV

Ki [1] [nM]	Ki [2] [nM]	Ki [3] [nM]	SMILES
465	248	188	CCCc1c(COc2ccc(C=NN=C(N)N)c(OC)c2)ccc(C(=O)CC)c1O [LY 320950]
2930	839	1190	CCCc1cc(C(C)(C)C)ccc1Oc1cccc(C=NN=C(N)N)c1 [LY 320951]
388	569	401	Cc1ccc(C)c(COc2ccc(C=NN=C(N)N)cc2)c1 [LY 334359]
1210	65	168	CCCc1c(COc2ccc(C=NN=C(N)N)cc2)ccc(C(C)=O)c1O [LY 314228]
7910	–	9730	CCc1c(COc2ccc(C=O)cc2)ccc(C(C)=O)c1O [LY 335102]
472	137	1660	NC(N)=NN=C(c1ccccc1)C1CCC(Cl)S1 (stereo not drawn) [LY 063518]
477	179	91	NC(N)=NN=Cc1cccc(OCc2ccc(C(=O)c3ccccc3)cc2)c1 [LY 334362]
1640	96	257	CCCc1c(COc2ccc(C=NN=C(N)N)cc2)ccc(C(=O)CC)c1O [LY 320954]
